In PubChem BioAssay (NCI):
Several values for one entry are separate records, joined by “and”; a condition that tells them apart may be missing. Identical values can stand only once.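 Briefly, cells in 96-well plates were exposed to five compound concentrations for 48 h, and endpoints were estimated by linear interpolation. Here, GI50 denotes the concentration required for 50% inhibition of growth. TGI is the concentration that stops growth completely.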

Assays:
Assay in all cases: NCI-60 cell line screen, 48 h
HCT-116 colon = test system: HCT-116 colon
HS 578T breast = test system: HS 578T breast
NCI-H23 lung = test system: NCI-H23 lung
SF-268 CNS = test system: SF-268 CNS
SR leukemia = test system: SR leukemia
SW-620 colon = test system: SW-620 colon
T-47D breast = test system: T-47D breast
A498 renal = test system: A498 renal
CCRF-CEM leukemia = test system: CCRF-CEM leukemia
RPMI-8226 leukemia = test system: RPMI-8226 leukemia

Row | SMILES | TGI (HCT-116 colon) | TGI (HS 578T breast) [µM] | TGI (NCI-H23 lung) | TGI (SF-268 CNS) | TGI (SR leukemia) [µM] | TGI (SW-620 colon) | TGI (T-47D breast) [µM] | GI50 (A498 renal) [µM] | TGI (A498 renal) | GI50 (CCRF-CEM leukemia) [µM] | TGI (CCRF-CEM leukemia) [µM] | GI50 (HCT-116 colon) [µM] | GI50 (HS 578T breast) [µM] | GI50 (NCI-H23 lung) | GI50 (RPMI-8226 leukemia) [µM] | TGI (RPMI-8226 leukemia) [µM] | GI50 (SF-268 CNS) [µM] | GI50 (SR leukemia) [µM] | GI50 (SW-620 colon) [µM] | GI50 (T-47D breast) [µM]
1 | CCOc1c(N=Nc2ccccc2Cl)c(-c2ccccc2)nn1C(=S)S | > 100 µM | 75.4 | > 100 µM | > 100 µM | 60 | > 100 µM | > 100 |  |  |  |  |  |  |  |  |  |  |  |  | 
2 | C#Cc1nc2ccccc2c(=O)[nH]1 | 0.716 µM | 7.12 | 4.77 µM | 4.57 µM | 2.6 | 1.12 µM | 3.6 | 1.58 | 3.26 µM | 0.237 | 0.721 | 0.247 | 1.69 | 1.69 µM | 0.213 | 0.635 | 1.54 | 0.311 | 0.291 | 1.36
3 | OCc1ccc(-c2cscc2-c2ccc(CO)o2)o1 | > 69.5 µM | > 100 | > 100 µM | > 100 µM | > 100 | > 100 µM | 9.65 | 0.0156 | 0.0381 µM | > 100 | > 100 | 1.65 | > 78.3 | 64.6 µM | 28.4 | > 100 | > 100 | > 100 | 7.14 | 1.46
4 | Cc1ccc(S(=O)(=O)c2nc(-c3ccccc3)oc2S(C)=O)cc1 (centres undefined) | 2.89 µM | 40 | 3.97 µM | 4.14 µM | 7.7 | 3.48 µM | 3.17 | 4.23 | 13.6 µM | 2.77 | 8.08 | 1.49 | 5.27 | 1.91 µM | 1.4 | 4.13 | 2.14 | 1.67 | 1.47 | 1.23
5 | O=c1[nH]c2nc(NC3CCOCC3)ncc2cc1Oc1ccc(F)cc1F | > 25 µM | > 25 | > 25 µM | > 25 µM | > 25 | > 25 µM | > 25 | > 25 | > 25 µM |  |  | > 25 | > 25 | > 25 µM | > 25 | > 25 | > 25 | > 25 | > 25 | > 25
6 | COc1cc(NC(=O)CCSc2nc3ccc(C)cc3c(=O)n2Cc2ccccc2)cc(OC)c1OC | > 100 µM | 6.74 | > 100 µM | 49.6 µM | > 100 | > 100 µM | > 100 | 15.8 | 60 µM | > 100 | > 100 | 4.35 | 2.18 | 26.6 µM | > 100 | > 100 | 4.22 | > 100 | > 100 | 7.04
7 | CC(C)=CCC(OC(=O)C=C(C)C)C1=CC(=O)c2c(O)ccc(O)c2C1=O (centres undefined) | 2.68 µM and 1.04 µM | 65.2 | 7.06 µM and 2.96 µM | 9.83 µM and 4.06 µM | > 100 | 1.27 µM and 0.867 µM |  | 20 | 39 µM and 5.39 µM | 0.0241 |  | 0.63 | 14.3 | 2.46 µM and 1.06 µM | 0.724 |  | 3.35 | 0.123 | 0.327 | 
8 | COc1ccc(C(O)c2cc3c(N)c(C(=O)Nc4cccc(Cl)c4)sc3nc2C)cc1 (centres undefined) | > 33.1 µM |  | > 50.1 µM | > 46.2 µM |  | > 38.3 µM | 31.9 | 0.659 | 2.38 µM | 1.13 | > 100 | 0.921 | 0.825 | 1.82 µM | 3.21 | > 100 | 2.79 | 0.339 | 1 | 1.15
9 | c1cncc(CNCc2cccnc2)c1 | > 100 µM | > 100 | > 100 µM | > 100 µM | > 100 | > 100 µM | > 100 |  | > 100 µM |  | > 100 |  |  |  |  | > 100 |  |  |  | 
10 | COc1cc(C)c(C2NC(=O)c3ccccc3N2)cc1C (centres undefined) | 43.1 µM | 0.908 | > 70.2 µM | > 100 µM | > 8.5 | > 100 µM | > 100 |  | 4.77 µM |  | 18.1 |  |  |  |  |  |  |  |  | 
11 | C1=C2CCCC3=Cc4ccccc4OC23Oc2ccccc21 | > 100 µM |  | > 100 µM | > 100 µM | > 100 | 53.6 µM | > 100 | 2.76 | 13.1 µM | 3.47 | 25.9 | 4.35 |  | 6.2 µM | 3.38 | 15 | 4.74 | 2.82 | 3.36 | 2.46
12 | Cc1c2cc(Cl)c3ccccc3c2c[n+]2ccccc12 | 32.9 µM | 11.9 | 23.5 µM | 1.58 µM | 15.2 | 24.2 µM | 2.53 | > 49.4 | > 100 µM | 3.36 | 26.3 | 7.2 | 1.12 | 2.74 µM | 7.75 | 46 | 0.364 | 2.4 | 3.74 | 0.544
13 | O=C(NCCc1ccccn1)OCc1nc2nc(Cl)nc(N3CCOCC3)c2[nH]1 | 2.09 µM | 9.77 | 4.14 µM | 3.8 µM | > 100 | 4.25 µM | 6.48 | 2.64 | 10.4 µM | 2.18 | 9.74 | 0.816 | 2.71 | 1.77 µM | 1.62 | 5.63 | 1.69 | 1.97 | 1.7 | 2.13
14 | CC1=Nc2ccccc2/C1=C\c1c(C)[nH]c2ccccc12 | 24.2 µM | 47.2 | 38.6 µM | 28.6 µM | 47.5 | 28.5 µM | 29.4 |  | 38 µM |  | > 100 |  |  |  |  | 88.1 |  |  |  | 
15 | COC(=O)COc1ccc(/C=C2/N=C(c3ccccc3)N(c3c(C)n(C)n(-c4ccccc4)c3=O)C2=O)cc1 | > 100 µM | 60.5 | > 100 µM | 30.5 µM | 69.3 | 50.6 µM | 61.2 | 26.1 | 44.1 µM | 13.2 | 50.2 | 32.4 | 24.7 | 57.5 µM | 21.7 | 44.8 | 12.8 | 23.1 | 22 | 21.3
16 | CC1=Cc2ccc(C)cc2C(=O)C1=O | 10.8 µM | > 65.1 | 45.3 µM | 27.5 µM | 4.38 | > 100 µM | 5.36 |  | 51.6 µM |  | 1.98 |  |  |  |  | 7.34 |  |  |  | 
17 | CSCCCNC(=O)c1ccc2c(c1)/C(=C/c1[nH]c(C)cc1C)C(=O)N2 | > 100 µM | > 100 | > 100 µM | > 100 µM | 61.4 | > 100 µM | > 100 | 0.47 | 2.7 µM | 4.36 | > 100 | 0.548 | 0.853 | 1.59 µM | 1.68 | > 100 | 1.98 | 0.476 | 0.846 | 0.465
18 | C=C1CCC2(C#N)[C@H]3[C@H](CC[C@@H]2C)[C@@H](C)C[C@@H](CC(C)(C)NC(=O)CN2CCC2=O)[C@H]13 (some centres undefined) | 16.2 µM | 30.7 | 36.7 µM | 42.3 µM | 23.6 | 32.3 µM | 9.64 | 9.03 | 53.1 µM | 12.8 | 80.3 | 3.43 | 4.79 | 10.4 µM | 2.87 | 15.9 | 14.2 | 4.02 | 11.3 | 2.49
19 | Cc1c(-c2ccnc(N)n2)c2c(n1Cc1ccccc1)C(=O)c1ccccc1C2=O | 16.6 µM | 8.05 |  |  | 4.52 | > 100 µM | > 100 |  |  | > 100 | > 100 | 3.7 | 2.62 |  | > 100 | > 100 |  | 1.84 | 6.82 | 47.8
20 | O=C1/C(=C/c2ccccc2)CN(C(=O)CCN2CCCC2)C/C1=C\c1ccccc1 | 0.674 µM |  | 4.35 µM | 5.8 µM | 1.07 | 0.511 µM | 5.61 |  | 13 µM |  | 1.06 |  |  |  |  | 2.46 |  |  |  | 
21 | COc1cc2c(cc1OCCCCCCN1CCN(CC(=O)Nc3ccc(Cl)cc3C(=O)c3ccccc3Cl)CC1)N=CC1CCCN1C2=O (centres undefined) | 0.481 µM | 0.589 | 0.468 µM |  | 0.194 | 0.591 µM | 0.415 | 0.535 | 1 µM |  |  | 0.183 | 0.243 | 0.198 µM |  |  |  | 0.0447 | 0.211 | 0.164
22 | C1CC[N-]CC1.CC(=N\O)/C(C)=N/O.CC(=N\O)/C(C)=N/O.OC1[CH-]CCCC1.[Co+2] | > 100 µM | 63 |  | > 100 µM | 62.6 | > 100 µM | 69.5 | > 100 | > 100 µM |  |  | 30.3 | 22.8 |  | 42.4 | > 100 | 44.8 | 20.5 | 31.6 | 16.5
